# Test results: PMC11930985 (Nature Communications, 2025)
# Key:
# AML/MDS patients = assay: Response assessment (ELN AML / modified IWG MDS criteria): ORR, DCR; assay type: in vivo, human
# Description: All patients underwent baseline disease assessments at screening (peripheral blood and bone marrow (BM)). Efficacy was assessed according to the blast percentage in a peripheral blood and BM aspirate sample, measurement of absolute neutrophil count, measurement of platelet count, and red cell transfusion requirement according to the European LeukemiaNet[37] response criteria for AML and the modified IWG response criteria for MDS[38]. Response criteria used are summarized in Supplementary Table 4.
# Response assessments (peripheral blood and BM) were performed at Cycle 2 Day 1 (pre-dose), Cycle 4 Day 1 (pre-dose) and repeated every 3 cycles thereafter or when clinically indicated. Patients who completed 12 months of study treatment and had not experienced progressive disease (PD) underwent response assessment every 5 cycles until PD was confirmed. Efficacy endpoints were: Objective response rate (ORR), defined as the number of patients with CR, CRi, MLFS, MR or PR divided by the total number of patients in the cohort/group; Disease control rate (DCR), defined as the number of patients with CR, CRi, MLFS, MR, PR or unchanged disease for at least three cycles (considered to have stable disease (SD)) divided by the total number of patients in the cohort/group; Overall survival (OS), defined as (date of death or censoring) – (date of the first study treatment) +1. Censoring date was the last date the patient was known to be alive; Event free survival (EFS), defined as (earliest of date of death, date of progression or date of censoring) – (date of the first study treatment) +1, with event defined as death or progression. Patients who started a new anti-cancer treatment before documented progression were censored at the date of the last assessment prior to start of non-protocol treatment. […] Patients who were alive without documented progression on the last day of contact were censored at the date of the last assessment.
# Yes = target: Yes; design: method as in Investigator's Brochure (IB) version 5.0; settings: ref Investigator's Brochure (IB) version 5.0; cited from earlier work
compound,measurement,setting,value
Nc1nc(Nc2ccc3c(c2)CC[C@@H](N2CCCC2)CC3)nn1-c1cc2c(nn1)-c1ccccc1CCC2 [Bemcentinib],CR,"AML/MDS patients; DE 200/100 mg, N=4",0 n (%)
same,CRi,"AML/MDS patients; DE 200/100 mg, N=4",0 n (%)
same,MLFS,"AML/MDS patients; DE 200/100 mg, N=4",0 n (%)
same,MR (marrow response),"AML/MDS patients; DE 200/100 mg, N=4",0 n (%)
same,NE (not evaluable),"AML/MDS patients; DE 200/100 mg, N=4",1 (25%) n (%)
same,Non-Responder,"AML/MDS patients; DE 200/100 mg, N=4",4 (100%) n (%)
same,PD (progressive disease),"AML/MDS patients; DE 200/100 mg, N=4",1 (25%) n (%)
same,PR,"AML/MDS patients; DE 200/100 mg, N=4",0 n (%)
same,Responder,"AML/MDS patients; DE 200/100 mg, N=4",0 (0%) n (%)
same,UC (unchanged),"AML/MDS patients; DE 200/100 mg, N=4",1 (25%) n (%)
same,CR,"AML/MDS patients; DE 400/100 mg, N=6",0 n (%)
same,CRi,"AML/MDS patients; DE 400/100 mg, N=6",0 n (%)
same,MLFS,"AML/MDS patients; DE 400/100 mg, N=6",0 n (%)
same,MR (marrow response),"AML/MDS patients; DE 400/100 mg, N=6",1 (17%) n (%)
same,NE (not evaluable),"AML/MDS patients; DE 400/100 mg, N=6",0 n (%)
same,Non-Responder,"AML/MDS patients; DE 400/100 mg, N=6",5 (83%) n (%)
same,PD (progressive disease),"AML/MDS patients; DE 400/100 mg, N=6",0 n (%)
same,PR,"AML/MDS patients; DE 400/100 mg, N=6",0 n (%)
same,Responder,"AML/MDS patients; DE 400/100 mg, N=6",1 (17%) n (%)
same,UC (unchanged),"AML/MDS patients; DE 400/100 mg, N=6",3 (50%) n (%)
same,CR,"AML/MDS patients; DE 400/200 mg, N=7",1 (14%) n (%)
same,CRi,"AML/MDS patients; DE 400/200 mg, N=7",1 (14%) n (%)
same,MLFS,"AML/MDS patients; DE 400/200 mg, N=7",0 n (%)
same,MR (marrow response),"AML/MDS patients; DE 400/200 mg, N=7",0 n (%)
same,NE (not evaluable),"AML/MDS patients; DE 400/200 mg, N=7",1 (14%) n (%)
same,Non-Responder,"AML/MDS patients; DE 400/200 mg, N=7",5 (71%) n (%)
same,PD (progressive disease),"AML/MDS patients; DE 400/200 mg, N=7",1 (14%) n (%)
same,PR,"AML/MDS patients; DE 400/200 mg, N=7",0 n (%)
same,Responder,"AML/MDS patients; DE 400/200 mg, N=7",2 (29%) n (%)
same,UC (unchanged),"AML/MDS patients; DE 400/200 mg, N=7",3 (43%) n (%)
same,CR,"AML/MDS patients; DE 600/200 mg, N=14",0 n (%)
same,CRi,"AML/MDS patients; DE 600/200 mg, N=14",1 (7%) n (%)
same,MLFS,"AML/MDS patients; DE 600/200 mg, N=14",1 (7%) n (%)
same,MR (marrow response),"AML/MDS patients; DE 600/200 mg, N=14",0 n (%)
same,NE (not evaluable),"AML/MDS patients; DE 600/200 mg, N=14",4 (29%) n (%)
same,Non-Responder,"AML/MDS patients; DE 600/200 mg, N=14",12 (86%) n (%)
same,PD (progressive disease),"AML/MDS patients; DE 600/200 mg, N=14",3 (21%) n (%)
same,PR,"AML/MDS patients; DE 600/200 mg, N=14",0 n (%)
same,Responder,"AML/MDS patients; DE 600/200 mg, N=14",2 (14%) n (%)
same,UC (unchanged),"AML/MDS patients; DE 600/200 mg, N=14",4 (29%) n (%)
same,CR,"AML/MDS patients; DE 900/300 mg, N=5",0 n (%)
same,CRi,"AML/MDS patients; DE 900/300 mg, N=5",0 n (%)
same,MLFS,"AML/MDS patients; DE 900/300 mg, N=5",0 n (%)
same,MR (marrow response),"AML/MDS patients; DE 900/300 mg, N=5",0 n (%)
same,NE (not evaluable),"AML/MDS patients; DE 900/300 mg, N=5",2 (40%) n (%)
same,Non-Responder,"AML/MDS patients; DE 900/300 mg, N=5",5 (100%) n (%)
same,PD (progressive disease),"AML/MDS patients; DE 900/300 mg, N=5",0 n (%)
same,PR,"AML/MDS patients; DE 900/300 mg, N=5",0 n (%)
same,Responder,"AML/MDS patients; DE 900/300 mg, N=5",0 (0%) n (%)
same,UC (unchanged),"AML/MDS patients; DE 900/300 mg, N=5",2 (40%) n (%)
same,Median time to objective response,AML/MDS patients; DE cohort,22 days
same,ORR,"AML/MDS patients; DE cohort overall, 36 patients, monotherapy",14%
same,ORR,"AML/MDS patients; DE cohort, 400/200 mg dosing group",29%
same,CR,"AML/MDS patients; DE overall, N=36",1 (3%) n (%)
same,CRi,"AML/MDS patients; DE overall, N=36",2 (6%) n (%)
same,MLFS,"AML/MDS patients; DE overall, N=36",1 (3%) n (%)
same,MR (marrow response),"AML/MDS patients; DE overall, N=36",1 (3%) n (%)
same,NE (not evaluable),"AML/MDS patients; DE overall, N=36",8 (22%) n (%)
same,Non-Responder,"AML/MDS patients; DE overall, N=36",31 (86%) n (%)
same,PD (progressive disease),"AML/MDS patients; DE overall, N=36",5 (14%) n (%)
same,PR,"AML/MDS patients; DE overall, N=36",0 n (%)
same,Responder,"AML/MDS patients; DE overall, N=36",5 (14%) n (%)
same,UC (unchanged),"AML/MDS patients; DE overall, N=36",13 (36%) n (%)
same,Kd,Yes,810 nM
